Measured values published in ChEMBL document CHEMBL1201862, “PubChem BioAssay data set” (2004).
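Assay format: 96-well plates, 48-hour exposure. The concentration for 50% growth inhibition is given as GI50.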 Calls of active or inactive are those of the source. Cut-off read from the data, not from the text of the source: active = GI50 up to about 1.1 µM and inactive = higher.

How the values were obtained:
Assay in all cases: growth of human tumour cells (NCI), 48 h
A498 = test system: A498
A549 = test system: A549
ACHN = test system: ACHN
CAKI-1 = test system: CAKI-1
CCRF-CEM = test system: CCRF-CEM
COLO 205 = test system: COLO 205
DLD-1 = test system: DLD-1
DMS-114 = test system: DMS-114
DMS-273 = test system: DMS-273
HCC 2998 = test system: HCC 2998
HCT-116 = test system: HCT-116
HCT-15 = test system: HCT-15
HL-60 = test system: HL-60
HOP-18 = test system: HOP-18
HOP-62 = test system: HOP-62
HOP-92 = test system: HOP-92
HT-29 = test system: HT-29
KM-20L2 = test system: KM-20L2
KM12 = test system: KM12
LOX IMVI = test system: LOX IMVI
LXFL 529 = test system: LXFL 529
M14 = test system: M14
MOLT-4 = test system: MOLT-4
Malme-3M = test system: Malme-3M
NCI-H226 = test system: NCI-H226
NCI-H23 = test system: NCI-H23
NCI-H460 = test system: NCI-H460
NCI-H522 = test system: NCI-H522
OVCAR-4 = test system: OVCAR-4
OVCAR-5 = test system: OVCAR-5
RPMI-8226 = test system: RPMI-8226
RXF 393 = test system: RXF 393
RXF 631 = test system: RXF 631
SF-268 = test system: SF-268
SF-295 = test system: SF-295
SK-MEL-28 = test system: SK-MEL-28
SK-MEL-2 = test system: SK-MEL-2
SK-MEL-5 = test system: SK-MEL-5
SK-OV-3 = test system: SK-OV-3
SN12C = test system: SN12C
SNB-19 = test system: SNB-19
SNB-75 = test system: SNB-75
SNB-78 = test system: SNB-78
SR = test system: SR
SW-620 = test system: SW-620
TK-10 = test system: TK-10
U-251 = test system: U-251
UACC-257 = test system: UACC-257
XF498 = test system: XF498
786-0 = test system: 786-0
BT-549 = test system: BT-549
DU-145 = test system: DU-145
EKVX = test system: EKVX
Hs-578T = test system: Hs-578T
IGROV-1 = test system: IGROV-1
K562 = test system: K562
M19-MEL = test system: M19-MEL
MCF7 = test system: MCF7
MDA-MB-231 = test system: MDA-MB-231
MDA-MB-435 = test system: MDA-MB-435
MDA-N = test system: MDA-N
NCI/ADR-RES = test system: NCI/ADR-RES
OVCAR-3 = test system: OVCAR-3
OVCAR-8 = test system: OVCAR-8
PC-3 = test system: PC-3
SF-539 = test system: SF-539
T47D = test system: T47D
UACC-62 = test system: UACC-62
UO-31 = test system: UO-31

In the case of `C=C(C)C1Cc2c(cc(O)c3c(=O)c4ccccc4n(C)c23)O1` (configuration not stated), the GI50 (A498) is reported as 24.3 µM (inactive), the GI50 (A549) is reported as 49.8 µM (inactive) and the GI50 (ACHN) is reported as 40.9 µM (inactive). For the same compound, the GI50 (CAKI-1) was 20.7 µM (inactive), the GI50 (CCRF-CEM) was 15.4 µM (inactive) and the GI50 (COLO 205) was > 100 µM (inactive). The GI50 (DLD-1) was 27.1 µM (inactive), the GI50 (DMS-114) was > 100 µM (inactive) and the GI50 (DMS-273) was 31.3 µM (inactive). The GI50 (HCC 2998) was > 100 µM (inactive), the GI50 (HCT-116) was 69.8 µM (inactive) and the GI50 (HCT-15) was > 100 µM. For the same compound, the GI50 (HL-60) was 39 µM (inactive), the GI50 (HOP-18) was 16 µM (inactive) and the GI50 (HOP-62) was 14.2 µM (inactive). The GI50 (HOP-92) was 20.6 µM (inactive), the GI50 (HT-29) was > 100 µM (inactive) and the GI50 (KM-20L2) was > 100 µM (inactive). For the same compound, the GI50 (KM12) was > 100 µM (inactive), the GI50 (LOX IMVI) was 10.7 µM (inactive) and the GI50 (LXFL 529) was 34 µM (inactive). The GI50 (M14) was 28.7 µM (inactive), the GI50 (MOLT-4) was > 100 µM (inactive) and the GI50 (Malme-3M) was 64.4 µM (inactive). The GI50 (NCI-H226) was 37.1 µM (inactive), the GI50 (NCI-H23) was 32.2 µM (inactive) and the GI50 (NCI-H460) was 43.5 µM (inactive). The GI50 (NCI-H522) was 19.9 µM (inactive), the GI50 (OVCAR-4) was 9.93 µM (inactive) and the GI50 (OVCAR-5) was > 100 µM (inactive). For the same compound, the GI50 (RPMI-8226) was > 100 µM (inactive), the GI50 (RXF 393) was 15.6 µM (inactive) and the GI50 (RXF 631) was 37 µM (inactive). For the same compound, the GI50 (SF-268) was 21.5 µM (inactive), the GI50 (SF-295) was 7.45 µM (inactive) and the GI50 (SK-MEL-28) was > 100 µM (inactive). The GI50 (SK-MEL-2) was 34.8 µM (inactive), the GI50 (SK-MEL-5) was 27.7 µM (inactive) and the GI50 (SK-OV-3) was 25.5 µM (inactive). For the same compound, the GI50 (SN12C) was 43.1 µM (inactive), the GI50 (SNB-19) was 13.9 µM (inactive) and the GI50 (SNB-75) was 14.9 µM (inactive). The GI50 (SNB-78) was 35.6 µM (inactive), the GI50 (SR) was 29.9 µM (inactive) and the GI50 (SW-620) was 36 µM (inactive). For the same compound, the GI50 (TK-10) was 17.5 µM (inactive), the GI50 (U-251) was 56 µM (inactive) and the GI50 (UACC-257) was > 100 µM (inactive). The GI50 (XF498) was 23.8 µM (inactive).

For `N#Cc1cc([N+](=O)[O-])ccc1NC(=O)/C(=N\NC(=O)c1ccncc1)C(c1cnc2ccc([N+](=O)[O-])cc2n1)[N+](=O)[O-]` (configuration not stated), the GI50 (786-0) was 2.44 µM (inactive), the GI50 (A498) was 8.49 µM (inactive) and the GI50 (A549) was 3.64 µM (inactive). For the same compound, the GI50 (ACHN) was 2.54 µM (inactive), the GI50 (BT-549) was 1.85 µM (inactive) and the GI50 (CAKI-1) was 5.98 µM (inactive). The GI50 (CCRF-CEM) was 3.38 µM (inactive), the GI50 (COLO 205) was 5.69 µM (inactive) and the GI50 (DMS-114) was 1.6 µM (inactive). For the same compound, the GI50 (DMS-273) was 1.82 µM (inactive), the GI50 (DU-145) was 5.64 µM (inactive) and the GI50 (EKVX) was 9.31 µM (inactive). The GI50 (HCC 2998) was 9.27 µM (inactive), the GI50 (HCT-116) was 2.43 µM (inactive) and the GI50 (HCT-15) was 2.03 µM. The GI50 (HL-60) was 3.51 µM (inactive), the GI50 (HOP-18) was 1.5 µM (inactive) and the GI50 (HOP-62) was 2.81 µM (inactive). The GI50 (HOP-92) was 9.18 µM (inactive), the GI50 (HT-29) was 19.2 µM (inactive) and the GI50 (Hs-578T) was 2.26 µM (inactive). For the same compound, the GI50 (IGROV-1) was 3.78 µM (inactive), the GI50 (K562) was 2.02 µM (inactive) and the GI50 (KM-20L2) was 4.26 µM (inactive). The GI50 (KM12) was 2.39 µM (inactive), the GI50 (LOX IMVI) was 0.759 µM (active) and the GI50 (LXFL 529) was 1.57 µM (inactive). For the same compound, the GI50 (M14) was 1.63 µM (inactive), the GI50 (M19-MEL) was 0.566 µM (active) and the GI50 (MCF7) was 1.55 µM (inactive). For the same compound, the GI50 (MDA-MB-231) was 1.99 µM (inactive), the GI50 (MDA-MB-435) was 1.03 µM (active) and the GI50 (MDA-N) was 0.512 µM (active). For the same compound, the GI50 (MOLT-4) was 7.23 µM (inactive), the GI50 (Malme-3M) was 1.31 µM (inactive) and the GI50 (NCI-H226) was 2.45 µM (inactive). The GI50 (NCI-H23) was 0.91 µM (active), the GI50 (NCI-H460) was 2.13 µM (inactive) and the GI50 (NCI-H522) was 1.8 µM (inactive). The GI50 (NCI/ADR-RES) was 6.41 µM (inactive), the GI50 (OVCAR-3) was 1.64 µM (inactive) and the GI50 (OVCAR-4) was 2.09 µM (inactive). The GI50 (OVCAR-5) was 9.4 µM (inactive), the GI50 (OVCAR-8) was 3.1 µM (inactive) and the GI50 (PC-3) was 3.33 µM (inactive). The GI50 (RPMI-8226) was 5.89 µM (inactive), the GI50 (RXF 393) was 4.44 µM (inactive) and the GI50 (RXF 631) was 2.32 µM (inactive). For the same compound, the GI50 (SF-268) was 2.86 µM (inactive), the GI50 (SF-295) was 1.78 µM (inactive) and the GI50 (SF-539) was 2.07 µM (inactive). The GI50 (SK-MEL-28) was 2.17 µM (inactive), the GI50 (SK-MEL-2) was 1.75 µM (inactive) and the GI50 (SK-MEL-5) was 0.869 µM (active). The GI50 (SK-OV-3) was 8.02 µM (inactive), the GI50 (SN12C) was 1.85 µM (inactive) and the GI50 (SNB-19) was 2.83 µM (inactive). For the same compound, the GI50 (SNB-75) was 1.99 µM (inactive), the GI50 (SNB-78) was 6.34 µM (inactive) and the GI50 (SR) was 4.24 µM (inactive). For the same compound, the GI50 (SW-620) was 2.4 µM (inactive), the GI50 (T47D) was 3.37 µM (inactive) and the GI50 (TK-10) was 14.2 µM (inactive). For the same compound, the GI50 (U-251) was 2.15 µM (inactive), the GI50 (UACC-257) was 1.55 µM (inactive) and the GI50 (UACC-62) was 1.52 µM (inactive). For the same compound, the GI50 (UO-31) was 2.31 µM (inactive) and the GI50 (XF498) was 1.69 µM (inactive).
